# Tested on: Cynomolgus monkey
# Assay: AUC (infinity) in cynomolgus monkey at 1 mg/kg, po
# Assay type: ADME, organism-based, Macaca fascicularis, Plasma
# Parameters: time infinity, dose 1 mg/kg, route oral
# Conditions: in vivo
row,AUC [ng·h/mL],Compound
1,107,CN(c1ccc2c(c1)S(=O)(=O)N=C(c1c(O)c3cccn3n(Cc3ccc(F)cc3)c1=O)N2)S(C)(=O)=O
2,83,CC(C)CCn1c(=O)c(C2=Nc3ccc(NS(C)(=O)=O)cc3S(=O)(=O)N2)c(O)c2cccn21
3,141,CC(C)CCn1c(=O)c(C2=NS(=O)(=O)c3cc(NS(=O)(=O)C4CC4)ccc3N2)c(O)c2cccn21
4,12900,CC(C)CCn1c(=O)c(C2=NS(=O)(=O)c3ccccc3N2)c(O)c2cccn21

# Tested on: not listed separately
# Assay: Metabolic stability in cynomolgus monkey liver microsomes assessed as remains after 60 mins at 1 uM
# Assay type: ADME, Macaca fascicularis, Microsome
# Conditions: read-out: Stability
row,"remaining at 1 h, 1 µM [%]",Compound
1,90,CN(c1ccc2c(c1)S(=O)(=O)N=C(c1c(O)c3cccn3n(Cc3ccc(F)cc3)c1=O)N2)S(C)(=O)=O
2,66,CC(C)CCn1c(=O)c(C2=Nc3ccc(NS(C)(=O)=O)cc3S(=O)(=O)N2)c(O)c2cccn21
3,87,CC(C)CCn1c(=O)c(C2=NS(=O)(=O)c3cc(NS(=O)(=O)C4CC4)ccc3N2)c(O)c2cccn21

# Tested on: not listed separately
# Assay: Oral bioavailability in cynomolgus monkey at 1 mg/kg
# Assay type: ADME, organism-based, Macaca fascicularis
# Conditions: in vivo
row,bioavailability [%],Compound
1,6,CN(c1ccc2c(c1)S(=O)(=O)N=C(c1c(O)c3cccn3n(Cc3ccc(F)cc3)c1=O)N2)S(C)(=O)=O
2,4,CC(C)CCn1c(=O)c(C2=NS(=O)(=O)c3cc(NS(=O)(=O)C4CC4)ccc3N2)c(O)c2cccn21
3,63,CC(C)CCn1c(=O)c(C2=NS(=O)(=O)c3ccccc3N2)c(O)c2cccn21

# Tested on: not listed separately
# Assay: Metabolic stability in cynomolgus monkey liver microsomes assessed as half life at 1 uM
# Assay type: ADME, Macaca fascicularis, Microsome
# Conditions: not given
row,half-life at 1 µM [min],Compound
1,> 60,CN(c1ccc2c(c1)S(=O)(=O)N=C(c1c(O)c3cccn3n(Cc3ccc(F)cc3)c1=O)N2)S(C)(=O)=O
2,> 60,CC(C)CCn1c(=O)c(C2=Nc3ccc(NS(C)(=O)=O)cc3S(=O)(=O)N2)c(O)c2cccn21
3,> 60,CC(C)CCn1c(=O)c(C2=NS(=O)(=O)c3cc(NS(=O)(=O)C4CC4)ccc3N2)c(O)c2cccn21
4,11,CC(C)CCn1c(=O)c(C2=NS(=O)(=O)c3ccccc3N2)c(O)c2cccn21

# Tested on: not listed separately
# Assay: Metabolic stability in human liver microsomes assessed as half life at 5 uM
# Assay type: ADME, Microsome
# Conditions: liver microsomes
row,half-life at 5 µM [min],Compound
1,> 60,CN(c1ccc2c(c1)S(=O)(=O)N=C(c1c(O)c3cccn3n(Cc3ccc(F)cc3)c1=O)N2)S(C)(=O)=O
2,42,CC(C)CCn1c(=O)c(C2=Nc3ccc(NS(C)(=O)=O)cc3S(=O)(=O)N2)c(O)c2cccn21
3,59,CC(C)CCn1c(=O)c(C2=NS(=O)(=O)c3cc(NS(=O)(=O)C4CC4)ccc3N2)c(O)c2cccn21
4,14,CC(C)CCn1c(=O)c(C2=NS(=O)(=O)c3ccccc3N2)c(O)c2cccn21

# Tested on: Hepatitis C virus
# Assay: Antiviral activity against HCV 1b in human Huh7/C24 cells after 72 hrs by replicon cell assay
# Assay type: functional, organism-based, Hepacivirus hominis
# Conditions: genotype 1b, Huh-7, 72 h
row,EC50 [nM],Compound
1,330,CN(c1ccc2c(c1)S(=O)(=O)N=C(c1c(O)c3cccn3n(Cc3ccc(F)cc3)c1=O)N2)S(C)(=O)=O
2,8.5,CC(C)CCn1c(=O)c(C2=Nc3ccc(NS(C)(=O)=O)cc3S(=O)(=O)N2)c(O)c2cccn21
3,96,CC(C)CCn1c(=O)c(C2=NS(=O)(=O)c3cc(NS(=O)(=O)C4CC4)ccc3N2)c(O)c2cccn21
4,5300,CC(C)CCn1c(=O)c(C2=NS(=O)(=O)c3ccccc3N2)c(O)c2cccn21

# Tested on: Cynomolgus monkey
# Assay: AUC (infinity) in cynomolgus monkey at 1 mg/kg, iv
# Assay type: ADME, organism-based, Macaca fascicularis, Plasma
# Parameters: time infinity, dose 1 mg/kg, route intravenous
# Conditions: in vivo
row,AUC [ng·h/mL],Compound
1,1780,CN(c1ccc2c(c1)S(=O)(=O)N=C(c1c(O)c3cccn3n(Cc3ccc(F)cc3)c1=O)N2)S(C)(=O)=O
2,3770,CC(C)CCn1c(=O)c(C2=NS(=O)(=O)c3cc(NS(=O)(=O)C4CC4)ccc3N2)c(O)c2cccn21
3,20500,CC(C)CCn1c(=O)c(C2=NS(=O)(=O)c3ccccc3N2)c(O)c2cccn21

# Tested on: not listed separately
# Assay: Apparent permeability from apical to basolateral side in human Caco-2 cells at 10 uM
# Assay type: ADME, cell-based
# Conditions: not given
row,Papp A→B at 10 µM [×10⁻⁶ cm/s],Compound
1,0.9,CN(c1ccc2c(c1)S(=O)(=O)N=C(c1c(O)c3cccn3n(Cc3ccc(F)cc3)c1=O)N2)S(C)(=O)=O
2,0.2,CC(C)CCn1c(=O)c(C2=Nc3ccc(NS(C)(=O)=O)cc3S(=O)(=O)N2)c(O)c2cccn21
3,0.8,CC(C)CCn1c(=O)c(C2=NS(=O)(=O)c3cc(NS(=O)(=O)C4CC4)ccc3N2)c(O)c2cccn21
4,11,CC(C)CCn1c(=O)c(C2=NS(=O)(=O)c3ccccc3N2)c(O)c2cccn21

# Tested on: not listed separately
# Assay: Clearance in cynomolgus monkey at 1 mg/kg, iv
# Assay type: ADME, organism-based, Macaca fascicularis
# Parameters: dose 1 mg/kg, route intravenous
# Conditions: in vivo
row,clearance [mL/min/kg],Compound
1,9,CN(c1ccc2c(c1)S(=O)(=O)N=C(c1c(O)c3cccn3n(Cc3ccc(F)cc3)c1=O)N2)S(C)(=O)=O
2,5,CC(C)CCn1c(=O)c(C2=NS(=O)(=O)c3cc(NS(=O)(=O)C4CC4)ccc3N2)c(O)c2cccn21
3,49,CC(C)CCn1c(=O)c(C2=NS(=O)(=O)c3ccccc3N2)c(O)c2cccn21

# Tested on: not listed separately
# Assay: Cytotoxicity against human Huh7/C24 cells after 72 hrs
# Assay type: cell-based, Huh-7
# Conditions: not given
row,Compound,CC50 at 72 h [nM]
1,CN(c1ccc2c(c1)S(=O)(=O)N=C(c1c(O)c3cccn3n(Cc3ccc(F)cc3)c1=O)N2)S(C)(=O)=O,> 10000
2,CC(C)CCn1c(=O)c(C2=Nc3ccc(NS(C)(=O)=O)cc3S(=O)(=O)N2)c(O)c2cccn21,> 1000
3,CC(C)CCn1c(=O)c(C2=NS(=O)(=O)c3cc(NS(=O)(=O)C4CC4)ccc3N2)c(O)c2cccn21,> 33000
4,CC(C)CCn1c(=O)c(C2=NS(=O)(=O)c3ccccc3N2)c(O)c2cccn21,> 100000

# Tested on: Hepatitis C virus
# Assay: Inhibition of HCV 1b NS5B RNA polymerase
# Parameters: species or system Hepatitis C virus subtype 1b
# Conditions: not given
row,IC50 [nM],Compound
1,130,CN(c1ccc2c(c1)S(=O)(=O)N=C(c1c(O)c3cccn3n(Cc3ccc(F)cc3)c1=O)N2)S(C)(=O)=O
2,< 10,CC(C)CCn1c(=O)c(C2=Nc3ccc(NS(C)(=O)=O)cc3S(=O)(=O)N2)c(O)c2cccn21
3,160,CC(C)CCn1c(=O)c(C2=NS(=O)(=O)c3cc(NS(=O)(=O)C4CC4)ccc3N2)c(O)c2cccn21
4,980,CC(C)CCn1c(=O)c(C2=NS(=O)(=O)c3ccccc3N2)c(O)c2cccn21

# Tested on: not listed separately
# Assay: Metabolic stability in human liver microsomes assessed as remains after 60 mins at 5 uM
# Assay type: ADME, Microsome
# Conditions: read-out: Stability
row,"remaining at 1 h, 5 µM [%]",Compound
1,90,CN(c1ccc2c(c1)S(=O)(=O)N=C(c1c(O)c3cccn3n(Cc3ccc(F)cc3)c1=O)N2)S(C)(=O)=O

# Tested on: not listed separately
# Assay: Solubility at pH 7.5
# Assay type: physicochemical
# Conditions: buffer
row,solubility [µM],Compound
1,> 60,CN(c1ccc2c(c1)S(=O)(=O)N=C(c1c(O)c3cccn3n(Cc3ccc(F)cc3)c1=O)N2)S(C)(=O)=O
2,> 100,CC(C)CCn1c(=O)c(C2=Nc3ccc(NS(C)(=O)=O)cc3S(=O)(=O)N2)c(O)c2cccn21
3,> 100,CC(C)CCn1c(=O)c(C2=NS(=O)(=O)c3cc(NS(=O)(=O)C4CC4)ccc3N2)c(O)c2cccn21
4,> 200,CC(C)CCn1c(=O)c(C2=NS(=O)(=O)c3ccccc3N2)c(O)c2cccn21
